Experimental data: PubChem BioAssay AID732 (Emory University Molecular Libraries Screening Center, 2007)
Several values for one entry are separate records, joined by “and”; a condition that tells them apart may be missing. Equal entries are not always repeated. Activity calls are given as the source filed them. No rule for the calls is given here.

System: in vivo angiogenesis, blood vessel count
Assay: angiogenesis inhibition in living animals, in vivo study, HTS (AID 732);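 also: zebrafish embryos dosed at one day post fertilization; 0% = reference inhibitor and 100% = plate mean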
Conditions: stronger effect = lower value;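 tested at 30 µM in the well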

C#C[C@]1(O)CC[C@H]2[C@@H]3CCC4=Cc5oncc5CC4(C)[C@H]3CCC21C (some centres not stated)
vessel count % control: 118% (inactive)

C[N+]1(C)CCN(c2ccccc2)CC1
vessel count % control: 89.3% (inactive)

CCCCCCCCCCCCCC(=O)O[C@@H]1[C@@H](C)[C@@]2(O)[C@@H](C=C(CO)C[C@@]3(O)C(=O)C(C)=C[C@@H]23)C2C(C)(C)[C@@]21OC(C)=O (some centres not stated)
vessel count % control: 0% (inactive)

COc1cc(C(O)CN)ccc1O (configuration not stated)
vessel count % control: 83.3% (inactive)

CC1CNCCN1S(=O)(=O)c1cccc2cnccc12 (configuration not stated)
vessel count % control: 97.5% (inactive) and 98.4% (inactive)

OC1CCCCC1N1CCC(c2ccccc2)CC1 (configuration not stated)
vessel count % control: 99% (inactive)

C=C/C(C)=C/[C@@]1(C)SC(=O)C(C)=C1O
vessel count % control: 97.7% (inactive)

CCN1C(=O)C=CC1=O
vessel count % control: 104% (inactive)

CCCC(=O)NCCc1c2n(c3ccc(OC)cc13)CCCc1ccccc1-2
vessel count % control: 92.5% (inactive)

Nc1nc(Nc2ccccc2)nc2c1ncn2[C@@H]1O[C@H](CO)[C@H](O)C1O (some centres not stated)
vessel count % control: 94.3% (inactive)

CCOC(=O)N1CCC(=C2c3ccc(Cl)cc3CCc3cccnc32)CC1
vessel count % control: 103% (inactive)

CC(C)NC[C@H](O)COc1cccc2ccccc12
vessel count % control: 94.9% (inactive)

CP(=O)(O)CCCN
vessel count % control: 76.1% (inactive)

NC/C=C\C(=O)O
vessel count % control: 111% (inactive)

CN(C)CCCN1c2ccccc2Sc2ccccc21
vessel count % control: 93.7% (inactive)

NCCc1ccc(O)c(O)c1
vessel count % control: 91.6% (inactive)

O=C(O)c1cc(=O)c2c(Cl)cc(Cl)cc2[nH]1
vessel count % control: 113% (inactive)

NCCNC(=O)c1ccc(Cl)cc1
vessel count % control: 106% (inactive)

Cn1c(=O)c2[nH]c(-c3ccc(S(=O)(=O)O)cc3)nc2n(C)c1=O
vessel count % control: 106% (inactive)

O=c1[nH]c2cc(C(F)(F)F)ccc2n1-c1cc(C(F)(F)F)ccc1O
vessel count % control: 91.2% (inactive)

CC(N)=O
vessel count % control: 108% (inactive)

Clc1cc(I)cc(Cl)c1NC1=NCCN1
vessel count % control: 80.6% (inactive)

CC(/C=C/c1cccc(Oc2ccc(F)cc2)c1)N(O)C(N)=O (configuration not stated)
vessel count % control: 100% (inactive)

Cn1c(=O)c2c(ncn2C)n(C)c1=O
vessel count % control: 113% (inactive)

OC[C@H]1O[C@@H](n2cnc3c(NC4CCCC4)ncnc32)C(O)[C@H]1O (some centres not stated)
vessel count % control: 94.3% (inactive)

Nc1nc2c(nc(Br)n2C2OC3COP(=O)(O)O[C@@H]3C2O)c(=O)[nH]1 (some centres not stated)
vessel count % control: 110% (inactive)

CC(C)C1C2CCC(C2)C1N (configuration not stated)
vessel count % control: 95.1% (inactive)

COc1ccc2c(c1)c(CC(=O)N1CCOCC1)c(C)n2C(=O)c1ccc(Cl)cc1
vessel count % control: 55% (inactive)

CSc1ccc2c(c1)C(N1CCN(C)CC1)Cc1ccccc1S2 (configuration not stated)
vessel count % control: 60.6% (inactive)

c1ccc2c(c1)CCCC2C1=NCCN1 (configuration not stated)
vessel count % control: 76% (inactive)

C[N+](C)(C)CCOC(N)=O
vessel count % control: 114% (inactive)

CC(C)NCC(O)COc1cccc2[nH]ccc12 (configuration not stated)
vessel count % control: 90.8% (inactive)

CN=C(N)NCCC[C@H](N)C(=O)O
vessel count % control: 93% (inactive)

NCCCC(=O)O
vessel count % control: 109% (inactive)

CC1=NN=C(c2ccc(N)cc2)c2cc3c(cc2C1)OCO3
vessel count % control: 96.1% (inactive)

CC(C)OC(=O)C(C)(C)Oc1ccc(C(=O)c2ccc(Cl)cc2)cc1
vessel count % control: 89.2% (inactive)

O=C(O)C1CCCN(CCC=C(c2ccccc2)c2ccccc2)C1 (configuration not stated)
vessel count % control: 88.5% (inactive)

O=c1c2ccccc2[se]n1-c1ccccc1
vessel count % control: 94.8% (inactive)

NCCCNCCCCNCCCN
vessel count % control: 115% (inactive)

COc1ccccc1N1CCN(CCCNc2cc(=O)n(C)c(=O)n2C)CC1
vessel count % control: 111% (inactive)

[N-]=[N+]=Nc1ccc(C(=O)CSC[C@H](NC(=O)CC[C@H](N)C(=O)O)C(=O)NCC(=O)O)cc1
vessel count % control: 91.6% (inactive)

Clc1cccc(N2CCNCC2)c1
vessel count % control: 101% (inactive)
